Results on 1 molecule are retold here after article PMC5218480 (PLoS ONE, 2017).

This assay has as its system MV-4-11 cells. As to the kind of experiment: Gene expression microarray analysis (Affymetrix PrimeView) and GSEA. On the set-up: RFU PODN (11730768_x_at) / Fold change /veh PODN (11730768_x_at) / RFU LINC00158 (11744669_a_at) / Fold change /veh LINC00158 (11744669_a_at) / RFU DUSP10 (11751237_a_at) / Fold change /veh DUSP10 (11751237_a_at) / RFU ID3 (11757404_x_at) / Fold change /veh ID3 (11757404_x_at) / RFU PLEKHG5 (11737974_s_at) / Fold change /veh PLEKHG5 (11737974_s_at) / RFU LRRC4B (11730491_at) / Fold change /veh LRRC4B (11730491_at) / RFU GIMAP4 (11747438_a_at) / Fold change /veh GIMAP4 (11747438_a_at) / RFU KRT8 (11758183_x_at) / Fold change /veh KRT8 (11758183_x_at) / RFU CNN1 (11734310_a_at) / Fold change /veh CNN1 (11734310_a_at) / RFU VPS37D (11726825_at) / Fold change /veh VPS37D (11726825_at) / RFU C10orf10 (11716522_x_at) / Fold change /veh C10orf10 (11716522_x_at) / RFU KIR2DL2 /// KIR2DL4 /// KIR2DL5A /// KIR2DL5B /// KIR2DS1 /// KIR2DS2 /// KIR2DS3 /// KIR2DS4 /// KIR3DL3 /// KIR3DL3 /// KIR3DS1 (11738374_at) / Fold change /veh KIR2DL2 /// KIR2DL4 /// KIR2DL5A /// KIR2DL5B /// KIR2DS1 /// KIR2DS2 /// KIR2DS3 /// KIR2DS4 /// KIR3DL3 /// KIR3DL3 /// KIR3DS1 (11738374_at) / RFU C1QL1 (11718748_at) / Fold change /veh C1QL1 (11718748_at) / RFU TMPRSS4 (11747572_a_at) / Fold change /veh TMPRSS4 (11747572_a_at) / RFU HAMP (11756126_x_at) / Fold change /veh HAMP (11756126_x_at) / RFU RNFT2 (11725882_a_at) / Fold change /veh RNFT2 (11725882_a_at) / RFU NR4A2 (11747474_a_at) / Fold change /veh NR4A2 (11747474_a_at) / RFU ABCC12 (11746883_a_at) / Fold change /veh ABCC12 (11746883_a_at) / RFU TMEM136 (11760407_x_at) / Fold change /veh TMEM136 (11760407_x_at) / RFU CLDN22 /// WWC2 (11732394_at) / Fold change /veh CLDN22 /// WWC2 (11732394_at) / RFU HLA-DPB1 (11760878_x_at) / Fold change /veh HLA-DPB1 (11760878_x_at) / RFU SPINT1 (11716480_a_at) / Fold change /veh SPINT1 (11716480_a_at) / RFU GAP43 (11754022_s_at) / Fold change /veh GAP43 (11754022_s_at) / RFU A4GNT (11735810_at) / Fold change /veh A4GNT (11735810_at) / RFU PRB3 (11715151_x_at) / Fold change /veh PRB3 (11715151_x_at) / RFU TUBB4B (11761932_at) / Fold change /veh TUBB4B (11761932_at) / RFU CAPN14 (11732068_a_at) / Fold change /veh CAPN14 (11732068_a_at) / RFU TMCC2 (11721928_a_at) / Fold change /veh TMCC2 (11721928_a_at) / RFU IRGQ (11745062_a_at) / Fold change /veh IRGQ (11745062_a_at) / RFU FAM174B (11720279_a_at) / Fold change /veh FAM174B (11720279_a_at) / RFU TMPRSS4 (11748680_a_at) / Fold change /veh TMPRSS4 (11748680_a_at) / RFU FAM212B (11763350_a_at) / Fold change /veh FAM212B (11763350_a_at) / RFU PLEKHG5 (11743358_a_at) / Fold change /veh PLEKHG5 (11743358_a_at) / RFU ZSCAN30 (11745921_a_at) / Fold change /veh ZSCAN30 (11745921_a_at) / RFU CMKLR1 (11741424_a_at) / Fold change /veh CMKLR1 (11741424_a_at) / RFU LOC101060620 /// MAPK8IP1 (11723275_at) / Fold change /veh LOC101060620 /// MAPK8IP1 (11723275_at) / RFU SPTSSB (11747773_x_at) / Fold change /veh SPTSSB (11747773_x_at) / RFU PRSS12 (11739890_at) / Fold change /veh PRSS12 (11739890_at) / RFU BIN1 (11741810_x_at) / Fold change /veh BIN1 (11741810_x_at) / RFU WNT11 (11732464_a_at) / Fold change /veh WNT11 (11732464_a_at) / RFU C10orf10 (11716521_a_at) / Fold change /veh C10orf10 (11716521_a_at) / RFU C5orf56 (11738089_at) / Fold change /veh C5orf56 (11738089_at) / RFU CYB561 (11721691_x_at) / Fold change /veh CYB561 (11721691_x_at) / RFU ANKRD19P (11752326_a_at) / Fold change /veh ANKRD19P (11752326_a_at) / RFU OR2T12 /// OR2T33 /// OR2T8 (11738714_s_at) / Fold change /veh OR2T12 /// OR2T33 /// OR2T8 (11738714_s_at) / RFU VCAN (11748164_a_at) / Fold change /veh VCAN (11748164_a_at) / RFU JSRP1 (11732532_at) / Fold change /veh JSRP1 (11732532_at) / RFU KRTAP10-11 (11738290_x_at) / Fold change /veh KRTAP10-11 (11738290_x_at) / RFU MYO3A (11730013_a_at) / Fold change /veh MYO3A (11730013_a_at) / RFU EBF3 (11725865_a_at) / Fold change /veh EBF3 (11725865_a_at) / RFU CAMK2N1 (11719241_x_at) / Fold change /veh CAMK2N1 (11719241_x_at) / RFU C5orf56 (11738088_a_at) / Fold change /veh C5orf56 (11738088_a_at) / RFU OLFML3 (11715873_a_at) / Fold change /veh OLFML3 (11715873_a_at) / RFU LOC100653217 /// NTM (11731650_a_at) / Fold change /veh LOC100653217 /// NTM (11731650_a_at) / RFU MAPK11 (11762145_a_at) / Fold change /veh MAPK11 (11762145_a_at) / RFU FIZ1 (11724087_x_at) / Fold change /veh FIZ1 (11724087_x_at) / RFU OASL (11726364_x_at) / Fold change /veh OASL (11726364_x_at) / RFU SOX15 (11748057_x_at) / Fold change /veh SOX15 (11748057_x_at) / RFU CD79A (11719716_a_at) / Fold change /veh CD79A (11719716_a_at) / RFU HIST1H1D (11736915_at) / Fold change /veh HIST1H1D (11736915_at) / RFU CASKIN2 (11723855_a_at) / Fold change /veh CASKIN2 (11723855_a_at) / RFU LOC730098 (11760151_x_at) / Fold change /veh LOC730098 (11760151_x_at) / RFU OR4N2 (11742367_at) / Fold change /veh OR4N2 (11742367_at) / RFU PRRT2 (11749266_a_at) / Fold change /veh PRRT2 (11749266_a_at) / RFU SNX32 (11753110_a_at) / Fold change /veh SNX32 (11753110_a_at) / RFU CDHR5 (11726645_a_at) / Fold change /veh CDHR5 (11726645_a_at) / RFU RCAN1 (11760418_a_at) / Fold change /veh RCAN1 (11760418_a_at) / RFU FAM167A (11723789_a_at) / Fold change /veh FAM167A (11723789_a_at) / RFU FAM26E (11764081_at) / Fold change /veh FAM26E (11764081_at) / RFU ISYNA1 (11749810_s_at) / Fold change /veh ISYNA1 (11749810_s_at) / RFU ACY1 (11761880_at) / Fold change /veh ACY1 (11761880_at) / RFU 11764098_at / Fold change /veh 11764098_at / RFU SAMD14 (11745864_x_at) / Fold change /veh SAMD14 (11745864_x_at) / RFU NPB (11741838_a_at) / Fold change /veh NPB (11741838_a_at) / RFU TMPRSS6 (11731388_a_at) / Fold change /veh TMPRSS6 (11731388_a_at) / RFU KRTAP10-2 (11738614_at) / Fold change /veh KRTAP10-2 (11738614_at) / RFU ARHGAP8 /// PRR5-ARHGAP8 (11727945_x_at) / Fold change /veh ARHGAP8 /// PRR5-ARHGAP8 (11727945_x_at) / RFU KRTAP5-7 /// NADSYN1 (11734609_at) / Fold change /veh KRTAP5-7 /// NADSYN1 (11734609_at) / RFU RASL12 (11751679_a_at) / Fold change /veh RASL12 (11751679_a_at) / RFU CDKN2B (11736163_a_at) / Fold change /veh CDKN2B (11736163_a_at) / RFU PRF1 (11729649_at) / Fold change /veh PRF1 (11729649_at) / RFU, ZNF638 /// ZNF638-IT1 / Fold change vs veh, ZNF638 /// ZNF638-IT1 / RFU, PANK3 / Fold change vs veh, PANK3 / RFU, SH3YL1 / Fold change vs veh, SH3YL1 / RFU, ZEB2 / Fold change vs veh, ZEB2 / RFU, NRIP1 / Fold change vs veh, NRIP1 / RFU, PTTG1IP / Fold change vs veh, PTTG1IP / RFU, CAPN2 / Fold change vs veh, CAPN2 / RFU, MED14 / Fold change vs veh, MED14 / RFU, SNORA58 / Fold change vs veh, SNORA58 / RFU, C1orf63 / Fold change vs veh, C1orf63 / RFU, LRRFIP1 / Fold change vs veh, LRRFIP1 / RFU, NDUFAF7 / Fold change vs veh, NDUFAF7 / RFU, SLC12A2 / Fold change vs veh, SLC12A2 / RFU, IBTK / Fold change vs veh, IBTK / RFU, ESF1 / Fold change vs veh, ESF1 / Fold change vs veh, TMEM50B / RFU, TAOK1 / Fold change vs veh, TAOK1 / RFU, ACBD3 / Fold change vs veh, ACBD3 / RFU, TMA16 / Fold change vs veh, TMA16 / RFU, RWDD3 / Fold change vs veh, RWDD3 / RFU, BCAT1 / Fold change vs veh, BCAT1 / RFU, EDEM3 / Fold change vs veh, EDEM3 / RFU, TMEM33 / Fold change vs veh, TMEM33 / RFU, WDR75 / Fold change vs veh, WDR75 / RFU, AHCTF1 / Fold change vs veh, AHCTF1 / RFU, TFRC / Fold change vs veh, TFRC / RFU, ZDHHC17 / Fold change vs veh, ZDHHC17 / RFU, NOM1 / Fold change vs veh, NOM1 / RFU, ARL8B / Fold change vs veh, ARL8B / RFU, ZBTB11 / Fold change vs veh, ZBTB11 / RFU, TAMM41 / Fold change vs veh, TAMM41 / RFU, KIAA1704 /// LOC100996395 / Fold change vs veh, KIAA1704 /// LOC100996395 / RFU, ING1 / Fold change vs veh, ING1 / RFU, TRMT61B / Fold change vs veh, TRMT61B / RFU, FUBP3 / Fold change vs veh, FUBP3 / RFU, TP53 / Fold change vs veh, TP53 / RFU, TNKS2 / Fold change vs veh, TNKS2 / RFU, ZFP14 / Fold change vs veh, ZFP14 / RFU, ACTR2 / Fold change vs veh, ACTR2 / RFU, PPP3R1 / Fold change vs veh, PPP3R1 / RFU, PIK3R1 / Fold change vs veh, PIK3R1 / RFU, HNRNPA1 / Fold change vs veh, HNRNPA1 / RFU, RNF170 / Fold change vs veh, RNF170 / RFU, ZNF28 / Fold change vs veh, ZNF28 / RFU, RNGTT / Fold change vs veh, RNGTT / RFU, OGT / Fold change vs veh, OGT / RFU, BRD1 / Fold change vs veh, BRD1 / RFU, MARS / Fold change vs veh, MARS / RFU, ZNF655 / Fold change vs veh, ZNF655 / RFU, FAHD1 / Fold change vs veh, FAHD1 / RFU, BDP1 / Fold change vs veh, BDP1 / RFU, LRRCC1 / Fold change vs veh, LRRCC1 / RFU, ARID1A / Fold change vs veh, ARID1A / RFU, ZNF146 / Fold change vs veh, ZNF146 / RFU, ZNF330 / Fold change vs veh, ZNF330 / RFU, GPN3 / Fold change vs veh, GPN3 / RFU, C9orf123 / Fold change vs veh, C9orf123 / RFU, N4BP2L2 / Fold change vs veh, N4BP2L2 / RFU, ARFIP1 / Fold change vs veh, ARFIP1 / RFU, FAM179B / Fold change vs veh, FAM179B / RFU, BCL10 / Fold change vs veh, BCL10 / RFU, UHRF1BP1L / Fold change vs veh, UHRF1BP1L / RFU, BET1 / Fold change vs veh, BET1 / RFU, CNOT2 / Fold change vs veh, CNOT2 / RFU, ZNF268 / Fold change vs veh, ZNF268 / Fold change vs veh, ZNF507 / RFU, DGCR2 / Fold change vs veh, DGCR2 / RFU, WDSUB1 / Fold change vs veh, WDSUB1 / Fold change vs veh, HSP90B1 /// MIR3652 / RFU, ADSS / Fold change vs veh, ADSS / RFU, GK / Fold change vs veh, GK / RFU, ZNF148 / Fold change vs veh, ZNF148 / RFU, TAF9 / Fold change vs veh, TAF9 / RFU, SLC1A5 / Fold change vs veh, SLC1A5 / RFU, SLMO2 / Fold change vs veh, SLMO2 / RFU, ABCC4 / Fold change vs veh, ABCC4 / RFU, LOC101060439 /// RAP1B / Fold change vs veh, LOC101060439 /// RAP1B / RFU, RFX7 / Fold change vs veh, RFX7 / RFU, GTPBP10 / Fold change vs veh, GTPBP10 / RFU, CNEP1R1 / Fold change vs veh, CNEP1R1 / RFU, BIVM-ERCC5 /// ERCC5 / Fold change vs veh, BIVM-ERCC5 /// ERCC5 / RFU, ILF3 / Fold change vs veh, ILF3 / RFU 11762660_at / Fold change /veh 11762660_at / RFU VCAN (11757783_s_at) / Fold change /veh VCAN (11757783_s_at) / RFU DDX43 (11728927_at) / Fold change /veh DDX43 (11728927_at) / RFU KRT8 (11758188_x_at) / Fold change /veh KRT8 (11758188_x_at) / RFU NKD1 (11759106_at) / Fold change /veh NKD1 (11759106_at) / RFU SRD5A1 (11742802_a_at) / Fold change /veh SRD5A1 (11742802_a_at) / RFU TPSAB1 /// TPSB2 (11721975_s_at) / Fold change /veh TPSAB1 /// TPSB2 (11721975_s_at) / RFU GSTM3 (11746129_a_at) / Fold change /veh GSTM3 (11746129_a_at) / RFU IL23R (11737362_x_at) / Fold change /veh IL23R (11737362_x_at) / RFU TMEM51 (11727254_a_at) / Fold change /veh TMEM51 (11727254_a_at) / RFU PIWIL2 (11732686_x_at) / Fold change /veh PIWIL2 (11732686_x_at) / RFU ORM1 (11744905_x_at) / Fold change /veh ORM1 (11744905_x_at) / RFU CCDC152 (11743942_at) / Fold change /veh CCDC152 (11743942_at) / RFU ECM1 (11717891_a_at) / Fold change /veh ECM1 (11717891_a_at) / RFU IL23R (11748794_a_at) / Fold change /veh IL23R (11748794_a_at) / RFU TNFAIP8L3 (11732012_x_at) / Fold change /veh TNFAIP8L3 (11732012_x_at) / RFU MBOAT4 (11741988_at) / Fold change /veh MBOAT4 (11741988_at) / RFU 11764193_at / Fold change /veh 11764193_at / RFU TMEM53 (11763286_at) / Fold change /veh TMEM53 (11763286_at) / RFU MAGEB2 (11727129_at) / Fold change /veh MAGEB2 (11727129_at) / RFU TMEM200A (11744735_a_at) / Fold change /veh TMEM200A (11744735_a_at) / RFU CCDC152 (11751479_a_at) / Fold change /veh CCDC152 (11751479_a_at) / RFU FAM211A (11726209_a_at) / Fold change /veh FAM211A (11726209_a_at) / RFU RGS16 (11746705_a_at) / Fold change /veh RGS16 (11746705_a_at) / RFU VCAN (11755009_s_at) / Fold change /veh VCAN (11755009_s_at) / RFU RHOB (11743442_s_at) / Fold change /veh RHOB (11743442_s_at) / RFU RGS16 (11720943_a_at) / Fold change /veh RGS16 (11720943_a_at) / RFU RGS16 (11720944_at) / Fold change /veh RGS16 (11720944_at) / RFU, VPS4B / Fold change vs veh, VPS4B / RFU, CREB1 / Fold change vs veh, CREB1 / RFU, DNAJC13 / Fold change vs veh, DNAJC13 / RFU, GNAQ / Fold change vs veh, GNAQ / RFU, CDK5R1 / Fold change vs veh, CDK5R1 / RFU, ZRANB3 / Fold change vs veh, ZRANB3 / RFU, CUL4A / Fold change vs veh, CUL4A / RFU, CCNY / Fold change vs veh, CCNY / RFU, UFL1 / Fold change vs veh, UFL1 / RFU, COG3 / Fold change vs veh, COG3 / RFU, DIAPH2 / Fold change vs veh, DIAPH2 / RFU, SKA2 / Fold change vs veh, SKA2 / RFU, AFF3 / Fold change vs veh, AFF3 / RFU, LMF1 / Fold change vs veh, LMF1 / RFU, IPO11 / Fold change vs veh, IPO11 / RFU, DFFB / Fold change vs veh, DFFB / RFU, FOXP1 / Fold change vs veh, FOXP1 / RFU, CARD8 / Fold change vs veh, CARD8 / RFU, STRN3 / Fold change vs veh, STRN3 / RFU, ADK / Fold change vs veh, ADK / RFU, RASSF2 / Fold change vs veh, RASSF2 / RFU, WIPF1 / Fold change vs veh, WIPF1 / RFU, LARP1B / Fold change vs veh, LARP1B / RFU, RASA1 / Fold change vs veh, RASA1 / RFU, RB1 / Fold change vs veh, RB1 / RFU, PPFIA1 / Fold change vs veh, PPFIA1 / RFU, MAT2A / Fold change vs veh, MAT2A / RFU, CCT5 / Fold change vs veh, CCT5 / RFU, WDR92 / Fold change vs veh, WDR92 / RFU, CUX1 / Fold change vs veh, CUX1 / RFU, TTC7A / Fold change vs veh, TTC7A / RFU, TMEM135 / Fold change vs veh, TMEM135 / RFU, DEPTOR / Fold change vs veh, DEPTOR / RFU, CPM / Fold change vs veh, CPM / RFU, DNAJB6 / Fold change vs veh, DNAJB6 / RFU, CACNA2D3 / Fold change vs veh, CACNA2D3 / RFU, DTX4 / Fold change vs veh, DTX4 / RFU, TFCP2 / Fold change vs veh, TFCP2 / RFU, GMCL1 /// GMCL1P1 / Fold change vs veh, GMCL1 /// GMCL1P1 / RFU, AEBP2 / Fold change vs veh, AEBP2 / RFU, SNHG1 /// SNORD22 /// SNORD25 /// SNORD26 /// SNORD27 /// SNORD28 /// SNORD29 /// SNORD31 / Fold change vs veh, SNHG1 /// SNORD22 /// SNORD25 /// SNORD26 /// SNORD27 /// SNORD28 /// SNORD29 /// SNORD31 / Fold change (Aza/veh), C12orf56 (ProbeSet 11735607_a_at) / Fold change (ACY-1035/veh), C12orf56 (ProbeSet 11735607_a_at) / Fold change (Aza/veh), FGFR1OP (ProbeSet 11751329_s_at) / Fold change (ACY-1035/veh), FGFR1OP (ProbeSet 11751329_s_at) / Fold change (Aza/veh), VPS36 (ProbeSet 11739960_a_at) / Fold change (ACY-1035/veh), VPS36 (ProbeSet 11739960_a_at) / RFU SYPL1 (11715823_x_at) / Fold change /veh SYPL1 (11715823_x_at) / RFU IGFBP7 (11715501_s_at) / Fold change /veh IGFBP7 (11715501_s_at) / RFU REEP3 (11722064_at) / Fold change /veh REEP3 (11722064_at) / RFU IGLL1 (11728026_x_at) / Fold change /veh IGLL1 (11728026_x_at): dose or concentration left out as unconfirmed. The conditions noted are these: MV-4-11 cells, 48 hours. The assay is classed as cell-based, human.

Regarding `Nc1ccc(-c2cccs2)cc1NC(=O)c1ccc2c(c1)cc(C1CC1)n2CCN1CCOCC1` [ACY-1035], the “Fold change /veh A4GNT (11735810_at)” value came to 1.01.
